3 molecules from publication PMC12435844, “cGAS activation converges with intracellular acidification to promote STING aggregation and pyroptosis in tumor models” (The Journal of Clinical Investigation, 2025) can be followed below.

In test [1] the target is T1, cyclophilin D (CypD) (Homo sapiens, UniProt P30405).
T1 construct: gene PPIF
The test can be described thus: photoactive click probe in A375 cells, azide-biotin conjugation, streptavidin pull-down and Western blot. In kind it is cell-based.

Test [2] deals with T1, cyclophilin D (CypD). Nature of the test: SPR; also FL-DSF (KD […]) and CETSA on immunoprecipitated CypD. The class given is binding.
Test [3] deals with STING (UniProt Q86WV6). The test can be described thus: co-immunoprecipitation. The following applies: reference: PERK wild type; sites T982.

T1 sequence (P30405 30-207): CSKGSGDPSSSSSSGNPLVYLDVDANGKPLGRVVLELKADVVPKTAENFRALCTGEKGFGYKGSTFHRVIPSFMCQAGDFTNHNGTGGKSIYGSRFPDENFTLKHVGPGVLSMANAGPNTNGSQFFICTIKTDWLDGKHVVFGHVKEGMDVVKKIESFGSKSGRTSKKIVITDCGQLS

`C#CCCC1(CC(=O)OCCCCCOC(=O)c2ccc3cc(O)ccc3c2)N=N1` [DHN-P]: the “photoactive click probe in A375 cells, azide-biotin conjugation, streptavidin pu” value in test [1] is given as “DHN-P could effectively pull down CypD but not other components in the mPTP complex”.
Consider `CCCCCCCCCCCCOC(=O)c1ccc2cc(O)ccc2c1` [DHN, dodecyl 6-hydroxy-2-naphthoate], for which the Kd in test [2] is 1190 ± 68 nM.
In the case of PERK (from UniProt Q9NZJ5) PERK T982A, the “binding against the reference” value in test [3] is given as “lost”.

Broadly, the Kd is the equilibrium constant for the complex coming apart. A lower Kd goes with tighter binding.
